# Experimental data: US10098350B2, “Fungicidal amides” (E. I. DU PONT DE NEMOURS AND COMPANY, priority 2013, dated 2018)
# Legend:
# Assay type in all cases: in vivo
# [1] = tested on: Stagonospora nodorum (also known as Septoria nodorum); test: Test B: wheat seedlings sprayed with test suspension, inoculated with Stagonospora nodorum (wheat glume blotch), visual disease rating
# Description: (§1) General protocol for preparing test suspensions for Tests A-E: the test compounds were first dissolved in acetone in an amount equal to 3% of the final volume and then suspended at the desired concentration (in ppm) in acetone and purified water (50/50 mix by volume) containing 250 ppm of the surfactant Trem® 014 (polyhydric alcohol esters). The resulting test suspensions were then used in Tests A-E. Samples were applied to plants at either a 10 ppm (**), 40 ppm, 50 ppm (*) or 200 ppm (#) test solution to the point of run-off on the test plants with the equivalent of a rate of 40 g ai/ha, 160 g ai/ha, 200 g ai/ha, or 800 g ai/ha, respectively.
# (§2) The test suspension was sprayed to the point of run-off on wheat seedlings. The following day the seedlings were inoculated with a spore suspension of Stagonospora nodorum (also known as Septoria nodorum; the causal agent of wheat glume blotch) and incubated in a saturated atmosphere at 20° C. for 48 h, and then moved to a growth chamber at 20° C. for 6 days, after which time visual disease ratings were made.
# (§3) Results for Tests A-E are given in Table A. In the Table, a rating of 100 indicates 100% disease control and a rating of 0 indicates no disease control (relative to the controls). A dash (-) indicates no test results.
# [2] = tested on: Puccinia recondite f. sp. tritici; test: Test D: wheat seedlings sprayed with test suspension, inoculated with Puccinia recondite f. sp. tritici (wheat leaf rust), visual disease rating
# Description: as §1
# as §2, with “Puccinia recondite f. sp. tritici; (the” for “Stagonospora nodorum (also known as Septoria nodorum; the”, “leaf rust)” for “glume blotch)”, “24” for “48”
# as §3
# [3] = tested on: Erysiphe graminis f. sp. tritici; test: Test E: wheat seedlings sprayed with test suspension, inoculated with Erysiphe graminis f. sp. tritici (wheat powdery mildew), visual disease rating
# Description: as §1
# The test suspension was sprayed to the point of run-off on wheat seedlings. The following day the seedlings were inoculated with a spore dust of Erysiphe graminis f. sp. tritici, (the causal agent of wheat powdery mildew) and incubated in a growth chamber at 20° C. for 7 or 8 days, after which time visual disease ratings were made.
# as §3
# Septoria tritici = test: Test C: wheat seedlings sprayed with test suspension, inoculated with Septoria tritici (wheat leaf blotch), visual disease rating
# Description: as §1
# The test suspension was sprayed to the point of run-off on wheat seedlings. The following day the seedlings were inoculated with a spore suspension of Septoria tritici (the causal agent of wheat leaf blotch) and incubated in a saturated atmosphere at 24° C. for 48 h, and then moved to a growth chamber at 20° C. for 21 days, after which time visual disease ratings were made.
# as §3
# [4] = Cmpd. No. marked '**' (other test rate; meaning of mark not shown)
# [5] = Cmpd. No. unmarked, 100 = 100% disease control, 0 = no control relative to controls
# [6] = Cmpd. No. marked '*' (other test rate; meaning of mark not shown)
SMILES,"Test D rating (% disease control) [2, 4] [%]","Test E rating (% disease control) [3, 4] [%]",Test C rating (% disease control) (Septoria tritici; [4]) [%],"Test B rating (% disease control) [1, 5] [%]","Test D rating (% disease control) [2, 5] [%]","Test E rating (% disease control) [3, 5] [%]",Test C rating (% disease control) (Septoria tritici; [5]) [%],also measured
Cn1nc(C(F)F)c(C(=O)N(Cc2ccc(-n3ccc(C(F)(F)F)n3)cc2Cl)C2CCC2)c1F [Compound 162],0,0,64,–,–,–,–,"Test B rating (% disease control) [1, 4]: 0%"
Cn1nc(C(F)F)c(C(=O)N(Cc2ccc(-n3ccc(C(F)(F)F)n3)cc2Br)C2CC2)c1F [compound 106],–,–,–,100,99,97,96,–
Cn1nc(C(F)F)c(C(=O)N(Cc2ccc(-n3ccc(C(F)(F)F)n3)cc2F)C2CC2)c1F [compound 68],–,–,–,100,91,99,97,–
Cn1nc(C(F)F)c(C(=O)N(Cc2ccc(-n3ccc(C(F)(F)F)n3)cc2Cl)C2COC2)c1F [Compound 164],0,0,46,–,–,–,–,"Test B rating (% disease control) [1, 4]: 0%"
Cc1ncn(-c2ccc(CN(C(=O)c3c(C(F)F)nn(C)c3F)C3CC3)c(Cl)c2)n1 [compound 65],–,–,–,87,0,0,98,–
Cn1nc(C(F)F)c(C(=O)N(Cc2ccc(-n3cc(Cl)cn3)cc2Cl)C2CC2)c1F [compound 143],–,–,–,100,99,99,99,–
CC(c1ncc(-n2cc(Cl)cn2)cc1Cl)N(C(=O)c1c(C(F)F)nn(C)c1F)C1CC1 (racemic) [compound 97],94,94,97,–,–,–,–,"Test B rating (% disease control) [1, 4]: 100%"
Cn1nc(C(F)F)c(C(=O)N(Cc2ccc(-n3ccc(C(F)(F)F)n3)c(Br)c2)C2CC2)c1F [compound 98],86,84,94,–,–,–,–,"Test B rating (% disease control) [1, 4]: 64%"
CC(c1cc(-n2ccc(C(F)(F)F)n2)ccc1Br)N(C(=O)c1c(C(F)F)nn(C)c1F)C1CC1 (stereo not drawn) [compound 53],–,–,–,100,74,96,97,–
Cn1nc(C(F)F)c(C(=O)N(Cc2ccc(-n3ccnn3)cc2Cl)C2CC2)c1F [compound 66],–,–,–,97,28,0,94,–
Cn1nc(C(F)F)c(C(=O)N(Cc2ccc(-n3ccc(C(F)(F)F)n3)cc2OCC#N)C2CC2)c1F [compound 61],–,–,–,0,9,21,90,–
COc1ccc(C(C)N(C(=O)c2c(C(F)F)nn(C)c2F)C2CC2)cc1-n1ccc(C(F)(F)F)n1 (stereo not drawn) [compound 55],–,–,–,100,61,87,97,–
Cn1nc(C(F)F)c(C(=O)N(Cc2ccc(-n3nccn3)cc2Cl)C2CC2)c1F [compound 64],–,–,–,100,100,97,98,–
Cc1cnn(-c2ccc(CN(C(=O)c3c(C(F)F)nn(C)c3F)C3CC3)c(Cl)c2)c1 [compound 144],–,–,–,100,97,99,99,–
CC(c1ccc(Cl)c(-n2ccc(C(F)(F)F)n2)c1)N(C(=O)c1cn(C)nc1C(F)F)C1CC1 (stereo not drawn) [compound 126],–,–,–,92,68,48,92,–
CC(c1ccc(C(F)(F)F)c(-n2ccc(C(F)(F)F)n2)c1)N(C(=O)c1c(C(F)F)nn(C)c1F)C1CC1 (stereo not drawn) [compound 51],–,–,–,100,0,84,88,–
Cn1nc(C(F)F)c(C(=O)N(Cc2c(Cl)cc(-n3ccc(C(F)(F)F)n3)cc2Cl)C2CC2)c1F [compound 127],–,–,–,100,100,98,99,–

SMILES,"Test D rating (% disease control) [2, 4] [%]","Test E rating (% disease control) [3, 4] [%]",Test C rating (% disease control) (Septoria tritici; [4]) [%],"Test B rating (% disease control) [1, 5] [%]","Test D rating (% disease control) [2, 5] [%]","Test E rating (% disease control) [3, 5] [%]",Test C rating (% disease control) (Septoria tritici; [5]) [%],also measured
Cn1nc(C(F)F)c(C(=O)N(Cc2cc(-n3ccc(C(F)(F)F)n3)ccc2Cl)C2CC2)c1F [compound 86],–,–,–,–,–,–,–,"Test B rating (% disease control) [1, 6]: 100%; Test D rating (% disease control) [2, 6]: 68%; Test E rating (% disease control) [3, 6]: 95%; Test C rating (% disease control) (Septoria tritici; [6]): 99%"
Cn1nc(C(F)F)c(C(=O)N(Cc2ncc(-n3ccc(C(F)(F)F)n3)cc2Br)C2CC2)c1F [compound 91],98,73,100,–,–,–,–,–
Cc1ccc(CN(C(=O)c2c(C(F)F)nn(C)c2F)C2CC2)cc1-n1ccc(C(F)(F)F)n1 [compound 87],–,–,–,–,–,–,–,"Test D rating (% disease control) [2, 6]: 80%; Test E rating (% disease control) [3, 6]: 92%; Test C rating (% disease control) (Septoria tritici; [6]): 98%"
CC(c1ccc(Cl)c(-n2ccc(C(F)(F)F)n2)c1)N(C(=O)c1c(C(F)F)nn(C)c1F)C1CC1 (stereo not drawn) [compound 74],–,–,–,–,27,93,99,–
Cn1nc(C(F)F)c(C(=O)N(Cc2ncc(-n3ccc(C(F)(F)F)n3)cc2C2CC2)C2CC2)c1F [compound 114],100,92,100,–,–,–,–,–
Cc1cc(CN(C(=O)c2c(C(F)F)nn(C)c2F)C2CC2)ccc1-n1ccc(C(F)(F)F)n1 [compound 93],99,69,100,–,–,–,–,–
CC(c1ncc(-n2ccc(Br)n2)cc1Cl)N(C(=O)c1c(C(F)F)nn(C)c1F)C1CC1 (racemic) [compound 89],99,81,100,–,–,–,–,–
Cc1ccc(C(C)N(C(=O)c2c(C(F)F)nn(C)c2F)C2CC2)cc1-n1ccc(C(F)(F)F)n1 (stereo not drawn) [compound 73],–,–,–,–,85,90,99,–
COc1ccc(-n2ccc(C(F)(F)F)n2)cc1C(C)N(C(=O)c1cn(C)nc1C(F)F)C1CC1 (stereo not drawn) [compound 120],–,–,–,100,–,95,92,–
Cn1nc(C(F)F)c(C(=O)N(Cc2ncc(-n3ccc(C(F)(F)F)n3)cc2Cl)C2CC2)c1F [compound 122],99,87,96,–,–,–,–,–
C=C(C)c1ccc(-n2ccc(C(F)(F)F)n2)cc1C(C)N(C(=O)c1c(C(F)F)nn(C)c1F)C1CC1 (racemic) [compound 123],–,–,–,–,–,–,–,"Test D rating (% disease control) [2, 6]: 92%; Test E rating (% disease control) [3, 6]: 93%; Test C rating (% disease control) (Septoria tritici; [6]): 100%"
CC(c1cc(Cl)cc(-n2ccc(C(F)(F)F)n2)c1)N(C(=O)c1c(C(F)F)nn(C)c1F)C1CC1 (stereo not drawn) [compound 54],–,–,–,–,–,–,–,"Test D rating (% disease control) [2, 6]: 99%; Test E rating (% disease control) [3, 6]: 93%; Test C rating (% disease control) (Septoria tritici; [6]): 96%"
C=C(C)c1cc(CN(C(=O)c2c(C(F)F)nn(C)c2F)C2CC2)ccc1-n1ccc(C(F)(F)F)n1 [compound 102],98,13,100,–,–,–,–,–
CC(C)c1ccc(-n2ccc(C(F)(F)F)n2)cc1CN(C(=O)c1c(C(F)F)nn(C)c1F)C1CC1 [compound 88],–,–,–,–,–,–,–,"Test D rating (% disease control) [2, 6]: 99%; Test E rating (% disease control) [3, 6]: 98%; Test C rating (% disease control) (Septoria tritici; [6]): 94%"
Cn1cc(C(=O)N(Cc2ncc(-n3ccc(C(F)(F)F)n3)cc2Br)C2CC2)c(C(F)F)n1 [compound 16],–,–,–,–,–,–,–,"Test D rating (% disease control) [2, 6]: 67%; Test E rating (% disease control) [3, 6]: 56%; Test C rating (% disease control) (Septoria tritici; [6]): 100%"
CC(C)c1ccc(-n2ccc(C(F)(F)F)n2)cc1C(C)N(C(=O)c1cn(C)nc1C(F)F)C1CC1 (stereo not drawn) [compound 82],–,–,–,–,–,–,–,"Test D rating (% disease control) [2, 6]: 0%; Test E rating (% disease control) [3, 6]: 87%; Test C rating (% disease control) (Septoria tritici; [6]): 88%"
